Several values for one entry are separate records, joined by “and”; a condition that tells them apart may be missing. Equal entries are not always repeated. Where two headings read alike, the source gives them in different places.
Key:
[1] = MTT cytotoxicity assay, normal cell line WI-38; format: cell-based, human; settings: human, WI-38 cells (normal human lung fibroblasts), normal (non-cancer) cell line, 24 h treatment
Description: (§1) Subsequently, 100 µL of dimethyl sulfoxide was introduced to dissolve the insoluble formazan.

WI-38 = test: MTT cytotoxicity assay, normal cell line WI-38; format: cell-based, human; settings: normal (non-cancer) cell line, 24 h treatment
Description: as §1

HeLa = test: MTT cytotoxicity assay, HeLa; format: cell-based; settings: Homo sapiens, 24 h treatment, mean ± SD of triplicate
Description: as §1

[2] = system: HCT-116, MDA-MB-231, HeLa, and MCF-7; test: MTT cytotoxicity assay, ranges stated over several cell lines; format: cell-based; settings: Homo sapiens
Description: as §1

MCF-7 [3] = test: MTT cytotoxicity assay, MCF-7; format: cell-based, human; settings: Homo sapiens, MCF7, 24 h, 24 h treatment, mean ± SD of triplicate
Description: as §1

HCT-116 = test: MTT cytotoxicity assay, HCT-116; format: cell-based; settings: Homo sapiens, 24 h treatment, mean ± SD of triplicate
Description: as §1

MDA-MB-231 = test: MTT cytotoxicity assay, MDA-MB-231; format: cell-based; settings: Homo sapiens, 24 h treatment, mean ± SD of triplicate
Description: as §1

MCF-7 [4] = test: In vitro anti-estrogenic activity assay, MCF-7
EGFR = EGFR (Homo sapiens, UniProt P00533); test: In vitro protein kinase inhibition assay (ELISA kit), EGFR
MCF-7a = test: In vitro anti-estrogenic activity assay, MCF-7a
VEGFR-2 = VEGFR-2 (Homo sapiens, UniProt P35968); test: In vitro protein kinase inhibition assay (ELISA kit), VEGFR-2
CDK2 = CDK2 (Homo sapiens, UniProt P24941); test: In vitro protein kinase inhibition assay (ELISA kit), CDK2
HER2 = HER2 (Homo sapiens, UniProt P04626); test: In vitro protein kinase inhibition assay (ELISA kit), HER2
[5] = molecular target: T1, aromatase (CYP19A, EC 1.14.14.14) (Homo sapiens, UniProt P11511); test: biochemical
T1 construct: Microsomal samples were isolated from tissue using the Microsome Isolation Kit; tissue BioVision K983-100; host or cells: microsomes from an unnamed tissue
T1 sequence (P11511 1-503): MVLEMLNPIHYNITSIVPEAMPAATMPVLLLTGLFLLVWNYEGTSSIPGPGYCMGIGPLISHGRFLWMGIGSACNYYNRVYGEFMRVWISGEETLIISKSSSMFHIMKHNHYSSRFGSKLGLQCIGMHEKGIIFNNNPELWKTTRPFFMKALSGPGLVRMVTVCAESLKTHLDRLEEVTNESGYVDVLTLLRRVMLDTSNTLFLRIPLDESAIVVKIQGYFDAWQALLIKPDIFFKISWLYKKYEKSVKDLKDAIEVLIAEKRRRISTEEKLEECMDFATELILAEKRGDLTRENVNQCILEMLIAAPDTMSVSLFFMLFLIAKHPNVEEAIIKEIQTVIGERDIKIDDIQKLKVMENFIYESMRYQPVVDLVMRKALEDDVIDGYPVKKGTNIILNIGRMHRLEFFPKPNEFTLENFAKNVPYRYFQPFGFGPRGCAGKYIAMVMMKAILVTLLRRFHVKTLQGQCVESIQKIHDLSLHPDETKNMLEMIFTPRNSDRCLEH
Description: In vitro aromatase assay was performed using the BioVision Aromatase Activity Assay Kit (Catalog # K983-100; BioVision, Milpitas, CA, USA). Microsomal samples were isolated from tissue using the Microsome Isolation Kit (Cat. #K249; BioVision, Milpitas, CA, USA). A standard curve was established by diluting the Fluorescence Standard provided in the kit to create a 0.5 pmole/µL solution, followed by setting up a series of standards in a white 96-well plate, adjusting the total volume to 100 µL with aromatase assay buffer. For each reaction well, a 2X concentrated mix was prepared by adding 2–48 µL of the microsomal sample and 2 µL of the NADPH generating system, bringing the final volume to 50 µL with aromatase assay buffer. Background controls (no enzyme) and positive controls (with recombinant aromatase) were included. […] After a 10 min incubation at 37 °C, 30 µL of the substrate/NADP+ mixture was added to each well, and fluorescence was measured immediately in kinetic mode for 60 min at 37 °C. Finally, the change in fluorescence was calculated to determine the specific activity of aromatase using the formula provided in the kit protocol.

[6] = parameters: method as in PMID 15863696; settings: cited from earlier work
[7] = HCT-116, MDA-MB-231, HeLa, MCF-7, range, read-out: IC50 values, range over the cancer cell lines tested
[8] = cell count relative to the control (17β-E2)

VEGFR-2, sequence (P35968 20-1356): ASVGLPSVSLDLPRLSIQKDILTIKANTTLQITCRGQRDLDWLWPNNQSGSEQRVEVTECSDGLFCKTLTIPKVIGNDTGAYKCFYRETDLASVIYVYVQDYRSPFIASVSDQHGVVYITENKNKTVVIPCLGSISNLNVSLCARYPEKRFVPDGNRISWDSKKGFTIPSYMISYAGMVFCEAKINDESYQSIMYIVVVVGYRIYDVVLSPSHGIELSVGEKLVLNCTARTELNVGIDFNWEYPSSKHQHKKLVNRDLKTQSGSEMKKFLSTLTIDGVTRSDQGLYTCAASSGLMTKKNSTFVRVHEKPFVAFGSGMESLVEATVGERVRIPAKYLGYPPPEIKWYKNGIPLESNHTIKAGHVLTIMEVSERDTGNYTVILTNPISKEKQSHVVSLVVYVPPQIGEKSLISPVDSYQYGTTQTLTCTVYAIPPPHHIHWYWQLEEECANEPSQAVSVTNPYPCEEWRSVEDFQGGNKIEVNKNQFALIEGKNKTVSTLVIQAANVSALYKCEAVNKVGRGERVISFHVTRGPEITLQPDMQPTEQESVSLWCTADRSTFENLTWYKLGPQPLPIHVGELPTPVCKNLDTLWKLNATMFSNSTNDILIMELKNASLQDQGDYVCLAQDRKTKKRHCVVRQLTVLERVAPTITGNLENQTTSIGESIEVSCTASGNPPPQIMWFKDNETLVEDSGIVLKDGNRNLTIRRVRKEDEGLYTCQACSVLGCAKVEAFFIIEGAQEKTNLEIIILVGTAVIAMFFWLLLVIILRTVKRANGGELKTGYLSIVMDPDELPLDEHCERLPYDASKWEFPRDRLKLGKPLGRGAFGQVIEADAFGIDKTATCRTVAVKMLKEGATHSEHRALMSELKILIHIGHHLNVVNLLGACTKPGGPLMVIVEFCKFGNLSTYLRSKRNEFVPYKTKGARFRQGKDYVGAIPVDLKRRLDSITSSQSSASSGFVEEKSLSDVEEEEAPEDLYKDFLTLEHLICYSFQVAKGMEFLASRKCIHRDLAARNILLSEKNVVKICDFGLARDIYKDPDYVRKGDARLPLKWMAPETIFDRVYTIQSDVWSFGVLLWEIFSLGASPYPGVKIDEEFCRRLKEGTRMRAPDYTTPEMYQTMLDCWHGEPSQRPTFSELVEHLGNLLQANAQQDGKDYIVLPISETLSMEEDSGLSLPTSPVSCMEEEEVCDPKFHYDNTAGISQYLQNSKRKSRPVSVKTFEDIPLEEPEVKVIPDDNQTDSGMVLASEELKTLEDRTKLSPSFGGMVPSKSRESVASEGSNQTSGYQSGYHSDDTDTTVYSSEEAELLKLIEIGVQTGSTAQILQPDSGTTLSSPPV
HER2, sequence (P04626 23-1255): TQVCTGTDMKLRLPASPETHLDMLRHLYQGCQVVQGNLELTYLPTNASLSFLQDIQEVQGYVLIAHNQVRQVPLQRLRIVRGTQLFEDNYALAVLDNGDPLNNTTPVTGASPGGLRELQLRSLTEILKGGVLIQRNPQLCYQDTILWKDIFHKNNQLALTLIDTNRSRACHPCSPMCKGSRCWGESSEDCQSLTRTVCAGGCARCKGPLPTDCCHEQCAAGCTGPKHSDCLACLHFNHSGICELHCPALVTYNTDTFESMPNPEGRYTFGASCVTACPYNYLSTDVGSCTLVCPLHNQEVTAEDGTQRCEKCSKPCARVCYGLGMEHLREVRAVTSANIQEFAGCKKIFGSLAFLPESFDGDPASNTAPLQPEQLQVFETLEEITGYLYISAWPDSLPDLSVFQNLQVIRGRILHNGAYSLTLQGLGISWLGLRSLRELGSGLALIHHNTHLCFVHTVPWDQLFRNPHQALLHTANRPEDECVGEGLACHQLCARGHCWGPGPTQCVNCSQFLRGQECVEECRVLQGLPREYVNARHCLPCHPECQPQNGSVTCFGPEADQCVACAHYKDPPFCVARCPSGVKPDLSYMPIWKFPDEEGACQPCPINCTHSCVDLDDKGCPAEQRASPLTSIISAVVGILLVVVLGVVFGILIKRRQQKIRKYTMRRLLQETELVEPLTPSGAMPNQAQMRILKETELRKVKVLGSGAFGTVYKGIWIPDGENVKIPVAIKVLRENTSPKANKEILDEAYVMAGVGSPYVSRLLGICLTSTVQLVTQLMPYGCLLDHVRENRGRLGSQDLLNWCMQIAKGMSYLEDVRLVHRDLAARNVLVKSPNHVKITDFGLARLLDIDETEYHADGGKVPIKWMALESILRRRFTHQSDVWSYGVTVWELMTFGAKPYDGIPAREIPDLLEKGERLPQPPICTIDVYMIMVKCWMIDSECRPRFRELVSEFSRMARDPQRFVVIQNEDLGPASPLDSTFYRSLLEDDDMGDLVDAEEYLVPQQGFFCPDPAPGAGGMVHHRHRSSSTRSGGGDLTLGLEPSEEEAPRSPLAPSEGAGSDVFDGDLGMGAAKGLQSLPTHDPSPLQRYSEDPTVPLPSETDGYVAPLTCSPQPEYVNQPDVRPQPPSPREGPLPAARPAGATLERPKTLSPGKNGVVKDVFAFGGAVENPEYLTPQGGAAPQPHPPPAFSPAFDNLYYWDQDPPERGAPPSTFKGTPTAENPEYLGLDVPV
EGFR, sequence (P00533 25-1210): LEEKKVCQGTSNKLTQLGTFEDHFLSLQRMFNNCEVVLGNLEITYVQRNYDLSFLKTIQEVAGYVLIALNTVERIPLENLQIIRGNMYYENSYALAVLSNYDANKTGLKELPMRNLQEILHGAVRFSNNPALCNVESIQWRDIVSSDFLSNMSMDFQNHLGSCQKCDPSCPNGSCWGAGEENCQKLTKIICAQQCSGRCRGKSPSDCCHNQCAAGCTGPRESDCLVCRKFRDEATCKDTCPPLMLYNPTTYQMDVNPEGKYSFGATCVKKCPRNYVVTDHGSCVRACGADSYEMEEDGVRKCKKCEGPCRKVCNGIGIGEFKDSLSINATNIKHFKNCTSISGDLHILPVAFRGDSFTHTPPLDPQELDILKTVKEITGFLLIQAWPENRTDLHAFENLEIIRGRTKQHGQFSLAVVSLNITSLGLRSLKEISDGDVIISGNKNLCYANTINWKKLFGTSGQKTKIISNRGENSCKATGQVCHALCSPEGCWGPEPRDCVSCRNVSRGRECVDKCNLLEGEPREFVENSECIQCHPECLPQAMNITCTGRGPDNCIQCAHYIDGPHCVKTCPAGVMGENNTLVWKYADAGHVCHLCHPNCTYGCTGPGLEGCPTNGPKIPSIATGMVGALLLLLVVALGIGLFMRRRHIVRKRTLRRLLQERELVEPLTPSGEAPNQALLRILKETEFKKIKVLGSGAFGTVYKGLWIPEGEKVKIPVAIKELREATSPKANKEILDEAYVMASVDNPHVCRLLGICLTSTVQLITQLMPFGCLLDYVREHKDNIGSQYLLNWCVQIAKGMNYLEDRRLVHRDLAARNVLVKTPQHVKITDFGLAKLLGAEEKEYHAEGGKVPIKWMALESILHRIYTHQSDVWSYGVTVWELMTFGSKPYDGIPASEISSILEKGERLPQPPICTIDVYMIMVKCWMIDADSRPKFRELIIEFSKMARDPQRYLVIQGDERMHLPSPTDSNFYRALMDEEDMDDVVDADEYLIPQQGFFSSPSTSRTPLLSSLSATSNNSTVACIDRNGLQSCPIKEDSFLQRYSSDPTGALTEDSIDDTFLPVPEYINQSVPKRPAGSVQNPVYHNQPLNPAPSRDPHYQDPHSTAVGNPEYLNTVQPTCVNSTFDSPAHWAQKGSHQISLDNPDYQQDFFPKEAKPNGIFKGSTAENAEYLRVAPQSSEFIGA

SMILES: COc1cc(/C=C/C(=O)c2ccccc2)ccc1OCc1ccccc1 [Compound 4t, (E)-3-(4-(Benzyloxy)-3-methoxyphenyl)-1-phenylprop-2-en-1-one]
- IC50 at 24 h [1]: 40 to 40.1 µM
- IC50 (WI-38): 40.1 ± 2.5 µM
- IC50 (HeLa): 59.3 ± 3.4 µM
- IC50 [2, 7]: 55.6 to 82.8 µM
- IC50 (MCF-7 [3]): 55.6 ± 2.9 µM
- IC50 (HCT-116): 68.9 ± 3.7 µM
- IC50 (MDA-MB-231): 64.1 ± 3.8 µM

SMILES: COc1ccc(C(=O)/C=C/c2ccc(OCc3ccccc3)c(OC)c2)cc1 [Compound 4v, (E)-3-(4-(Benzyloxy)-3-methoxyphenyl)-1-(4-methoxyphenyl)prop-2-en-1-one]
- IC50 at 24 h [1]: 75.2 ± 3.9 µM
- Cell Proliferation MCF-7 % (MCF-7 [4]; [8]): 73%
- Cell Proliferation MCF-7 Cell Count (MCF-7 [4]; mean ± SD of triplicate): 13,611 ± 485
- Reduction of growth/cell count (inhibition) in MCF-7 (MCF-7 [4]; relative to control): 27%
- IC50 (HeLa): 18.2 ± 1.5 µM
- IC50 (EGFR): 0.671 ± 0.022 µM
- Inhibition (%) EGFR (EGFR; 0.01 µM, individual Data 1-3): 3.97% and 2.96% and 6%
- Inhibition (%) EGFR (EGFR; 0.1 µM, individual Data 1-3): 28.6% and 31.2%
- Inhibition (%) EGFR (EGFR; 1 µM, individual Data 1-3): 59.9% and 57.5%
- Inhibition (%) EGFR (EGFR; 10 µM, individual Data 1-3): 82.3% and 86.7%
- Inhibition (%) EGFR (EGFR; 100 µM, individual Data 1-3): 90.54% and 95%
- inhibition at 0.1 µM (EGFR; read-out: Inhibition (%) EGFR, 0.1 µM, individual Data 1-3): 29.6%
- inhibition at 1 µM (EGFR; read-out: Inhibition (%) EGFR, 1 µM, individual Data 1-3): 62.3%
- inhibition at 10 µM (EGFR; read-out: Inhibition (%) EGFR, 10 µM, individual Data 1-3): 84.2%
- inhibition at 100 µM (EGFR; read-out: Inhibition (%) EGFR, 100 µM, individual Data 1-3): 92.4%
- Cell Proliferation MCF-7a % (MCF-7a; [8]): 98%
- Cell Proliferation MCF-7a Cell Count (MCF-7a; mean ± SD of triplicate): 20,397 ± 589
- Inhibition in MCF-7a (MCF-7a; relative to control): 2%
- IC50 (VEGFR-2): 1.82 ± 0.062 µM
- Inhibition (%) VEGFR2 (VEGFR-2; 0.01 µM, individual Data 1-3): 5.43% and 9.43%
- Inhibition (%) VEGFR2 (VEGFR-2; 0.1 µM, individual Data 1-3): 15% and 21.8%
- Inhibition (%) VEGFR2 (VEGFR-2; 1 µM, individual Data 1-3): 36.9% and 34.2%
- Inhibition (%) VEGFR2 (VEGFR-2; 10 µM, individual Data 1-3): 67.26% and 74.3%
- Inhibition (%) VEGFR2 (VEGFR-2; 100 µM, individual Data 1-3): 86% and 93.4%
- inhibition at 0.01 µM (VEGFR-2; read-out: Inhibition (%) VEGFR2, 0.01 µM, individual Data 1-3): 7.43%
- inhibition at 0.1 µM (VEGFR-2; read-out: Inhibition (%) VEGFR2, 0.1 µM, individual Data 1-3): 18.1%
- inhibition at 1 µM (VEGFR-2; read-out: Inhibition (%) VEGFR2, 1 µM, individual Data 1-3): 39%
- inhibition at 10 µM (VEGFR-2; read-out: Inhibition (%) VEGFR2, 10 µM, individual Data 1-3): 70.2%
- inhibition at 100 µM (VEGFR-2; read-out: Inhibition (%) VEGFR2, 100 µM, individual Data 1-3): 89.2%
- IC50 (CDK2): 1.03 ± 0.032 µM
- Inhibition (%) CDK2 (CDK2; 0.01 µM, individual Data 1-3): 5.2% and 8.6%
- Inhibition (%) CDK2 (CDK2; 0.1 µM, individual Data 1-3): 18.3% and 24.97%
- Inhibition (%) CDK2 (CDK2; 1 µM, individual Data 1-3): 47.4% and 43.2%
- Inhibition (%) CDK2 (CDK2; 10 µM, individual Data 1-3): 76.2% and 84.1%
- Inhibition (%) CDK2 (CDK2; 100 µM, individual Data 1-3): 89.1% and 95.3%
- inhibition at 0.01 µM (CDK2; read-out: Inhibition (%) CDK2, 0.01 µM, individual Data 1-3): 6.58%
- inhibition at 0.1 µM (CDK2; read-out: Inhibition (%) CDK2, 0.1 µM, individual Data 1-3): 22.9%
- inhibition at 1 µM (CDK2; read-out: Inhibition (%) CDK2, 1 µM, individual Data 1-3): 51.2%
- inhibition at 10 µM (CDK2; read-out: Inhibition (%) CDK2, 10 µM, individual Data 1-3): 79.3%
- inhibition at 100 µM (CDK2; read-out: Inhibition (%) CDK2, 100 µM, individual Data 1-3): 92.3%
- IC50 ([2]; HCT-116 and HeLa, range over the compounds named, read-out: IC50 values, range against HCT-116 and HeLa): 6.59 to 22.6 µM
- IC50 ([2]; MDA-MB-231 and MCF-7, range over the compounds named, read-out: IC50 values, range against MDA-MB-231 and MCF-7): 2.08 to 13.6 µM
- IC50 (MCF-7 [3]): 8.67 ± 0.6 µM
- IC50 (HER2): 1.57 ± 0.061 µM
- Inhibition (%) Her2 (HER2; 0.01 µM, individual Data 1-3): 4.92% and 2.56% and 8.92%
- Inhibition (%) Her2 (HER2; 0.1 µM, individual Data 1-3): 7.65% and 12.67%
- Inhibition (%) Her2 (HER2; 1 µM, individual Data 1-3): 45.3% and 42.34%
- Inhibition (%) Her2 (HER2; 10 µM, individual Data 1-3): 71.2% and 75.89%
- Inhibition (%) Her2 (HER2; 100 µM, individual Data 1-3): 88.65% and 94.3%
- inhibition at 0.1 µM (HER2; read-out: Inhibition (%) Her2, 0.1 µM, individual Data 1-3): 10.2%
- inhibition at 1 µM (HER2; read-out: Inhibition (%) Her2, 1 µM, individual Data 1-3): 48.9%
- inhibition at 10 µM (HER2; read-out: Inhibition (%) Her2, 10 µM, individual Data 1-3): 74.7%
- inhibition at 100 µM (HER2; read-out: Inhibition (%) Her2, 100 µM, individual Data 1-3): 91.6%
- IC50 (HCT-116): 14.5 ± 1.1 µM
- IC50 (MDA-MB-231): 10.2 ± 0.8 µM
- Inhibition (%) Aromatase ([5]; 0.01 µM, individual Data 1-3): 17% and 20%
- Inhibition (%) Aromatase ([5]; 0.1 µM, individual Data 1-3): 36%
- Inhibition (%) Aromatase ([5]; 1 µM, individual Data 1-3): 64% and 63%
- Inhibition (%) Aromatase ([5]; 10 µM, individual Data 1-3): 84% and 87%
- Inhibition (%) Aromatase ([5]; 100 µM, individual Data 1-3): 94% and 97%
- IC50 ([5]; mean ± SD of triplicate, approximate values, read-out: Aromatase Inhibition IC50): 0.357 ± 0.012 µM
- inhibition at 0.01 µM ([5]; read-out: Inhibition (%) Aromatase, 0.01 µM, individual Data 1-3): 18%
- inhibition at 0.1 µM ([5]; read-out: Inhibition (%) Aromatase, 0.1 µM, individual Data 1-3): 34%
- inhibition at 1 µM ([5]; read-out: Inhibition (%) Aromatase, 1 µM, individual Data 1-3): 66%
- inhibition at 10 µM ([5]; read-out: Inhibition (%) Aromatase, 10 µM, individual Data 1-3): 85%
- inhibition at 100 µM ([5]; read-out: Inhibition (%) Aromatase, 100 µM, individual Data 1-3): 95%

SMILES: COc1cccc(C(=O)/C=C/c2ccc(OCc3ccccc3)c(OC)c2)c1 [Compound 4u, (E)-3-(4-(Benzyloxy)-3-methoxyphenyl)-1-(3-methoxyphenyl)prop-2-en-1-one]
- IC50 at 24 h [1]: 40 to 40.1 µM
- IC50 (WI-38): 39 ± 2.4 µM
- IC50 (HeLa): > 100 µM
- IC50 [2, 7]: 55.6 to 82.8 µM
- IC50 (MCF-7 [3]): 82.8 ± 4.1 µM
- IC50 (HCT-116): 95.3 ± 4.9 µM
- IC50 (MDA-MB-231): > 100 µM

SMILES: COc1cccc(/C=C/C(=O)c2ccccc2)c1 [Compound 4d, (E)-3-(3-Methoxyphenyl)-1-phenylprop-2-en-1-one]
- IC50 at 24 h [1]: 77.3 to 100 µM
- IC50 (WI-38): 77.3 ± 3.8 µM
- IC50 (HeLa): 39.4 ± 2.3 µM
- IC50 [2, 7]: 23.5 to 74.5 µM
- IC50 (MCF-7 [3]): 29.7 ± 1.9 µM
- IC50 (HCT-116): 36 ± 2.2 µM
- IC50 (MDA-MB-231): 43.6 ± 2.3 µM

SMILES: O=C(/C=C/c1ccc(O)cc1)c1ccccc1 [4-hydroxychacone]
- Concentration at which estrogenic activity is shown [6]: 0.0001 mol

SMILES: COc1ccccc1/C=C/C(=O)c1ccccc1 [Compound 4c, (E)-3-(2-Methoxyphenyl)-1-phenylprop-2-en-1-one]
- IC50 at 24 h [1]: 77.3 to 100 µM
- IC50 (WI-38): > 100 µM
- IC50 (HeLa): 42.5 ± 2.5 µM
- IC50 [2, 7]: 23.5 to 74.5 µM
- IC50 (MCF-7 [3]): 23.5 ± 1.6 µM
- IC50 (HCT-116): 28.4 ± 1.8 µM
- IC50 (MDA-MB-231): 35.9 ± 2.1 µM

Source: publication PMC11766267 (International Journal of Molecular Sciences, 2025)
